Reference: US4451284A, “Derivatives of 2-nitro-4- or -5-pyridyloxyphenylphosphonic acid, the preparation thereof, the use thereof as herbicides and/or plant growth regulators” (Ciba-Geigy Corporation, priority 1981, dated 1984)

Legend:
wheat [1] = assay: Stimulation of root growth in wheat (plastic boxes, 30 days); type: in vivo; settings: for root dry weight expressed as % of controls / root length expressed as % of controls: 30 days, controls = 100%
Description: (§1) Compounds of formula I are employed in the form of aqueous dispersions prepared from a 25% wettable powder. The test is carried out with seeds which are sown in plastic boxes measuring 5×35×60 cm and filled with soil (15 seeds per box). The seeds are treated before sowing at rates of application of 45-500 mg per kg of seeds. The boxes are kept under controlled conditions in a climatic chamber. After 30 days, the plants are carefully washed with water to remove the soil and the length and dry weight of the roots are assessed.

soya bean plants = assay: Regulation of the growth of soya bean plants; settings: controls = 100%
mould fungi = assay: Action against mould fungus on moist maize; type: in vivo, mixed population of mould fungi; settings: for reduction of fungus attack compared with untreated controls: 0.06% a.i.
Excerpt: Dry maize grains (portions of 80 g each) are thoroughly mixed in sealable plastic beakers with an aqueous suspension prepared from a 25% wettable powder formulation of a compound of formula I. The application is so adjusted as to give a concentration of 0.06% of active ingredient, based on the weight of dry maize. A moistened slip of paper provides for a saturated humid atmosphere in the beakers which are filled with maize and then sealed. A mixed population of mould fungi develops spontaneously after incubation for 2-3 weeks at about 20° C. in the maize samples which have been treated only with water. The effectiveness of the test compounds is assessed by evaluating the degree of fungus development after 3 weeks.
A visual assessment is made after each month according to the same criteria as specified above.

cotton = assay: Stimulation of root growth in cotton (plastic boxes, 30 days); type: in vivo; settings: for root dry weight expressed as % of controls / root length expressed as % controls: 30 days, controls = 100%
Description: as §1

wheat [2] = assay: Stimulation of root growth in wheat (plastic cylinders, 10 days); type: in vivo; settings: seed treatment 4-130 mg per kg of seeds or soil spray 0.3 to 3 kg/ha; after 10 days
Description: Compounds of formula I are applied in the form of aqueous dispersions prepared from a 25% wettable powder. The test is carried out with seeds which are sown in plastic cylinders measuring 5×30 cm and filled with soil (10 seeds per cylinder). The seeds are (a) treated before sowing at rates of application of 4-130 mg per kg of seeds or (b) are untreated and the soil is sprayed with a dispersion of the active ingredient at rates of application of 0.3 to 3 kg/ha. The cylinders are kept under controlled conditions in a climatic chamber. After 10 days, the seedlings are carefully washed with water to remove the soil and the length and dry weight of the roots are assessed.

[3] = seed treatment 45-500 mg per kg of seeds, after 30 days

Structure (SMILES): O=[N+]([O-])c1ccc(Oc2ccc(C(F)(F)F)cn2)cc1P(=O)(O)O [Compound 3]
- root dry weight expressed as % of controls (wheat [1]; 45 mg a.i./kg of seeds): 105 % of controls
- root length expressed as % of controls (wheat [1]; 45 mg a.i./kg of seeds): 98 % of controls
- root dry weight expressed as % of controls (wheat [1]; 150 mg a.i./kg of seeds): 112 % of controls
- root length expressed as % of controls (wheat [1]; 150 mg a.i./kg of seeds): 107 % of controls
- root dry weight expressed as % of controls (wheat [1]; 500 mg a.i./kg of seeds): 110 % of controls
- root length expressed as % of controls (wheat [1]; 500 mg a.i./kg of seeds): 107 % of controls
- root growth stimulation effectiveness in words (wheat [1]; [3]): every effective
- Weight of pods as % of controls (soya bean plants; 0.08 kg a.i./ha): 119 % of controls
- no. of pods as % of controls (soya bean plants; 0.08 kg a.i./ha): 107 % of controls
- Weight of pods as % of controls (soya bean plants; 0.40 kg a.i./ha): 119 % of controls
- no. of pods as % of controls (soya bean plants; 0.40 kg a.i./ha): 119 % of controls
- Weight of pods as % of controls (soya bean plants; 0.80 kg a.i./ha): 135 % of controls
- no. of pods as % of controls (soya bean plants; 0.80 kg a.i./ha): 109 % of controls
- Weight of pods as % of controls (soya bean plants; 4.00 kg a.i./ha): 108 % of controls
- no. of pods as % of controls (soya bean plants; 4.00 kg a.i./ha): 98 % of controls
- reduction of fungus attack compared with untreated controls (mould fungi; after 3 weeks): 80-95%
- reduction of fungus attack compared with untreated controls (mould fungi; after 3 weeks and a further month): 80-95%
- reduction of fungus attack compared with untreated controls (mould fungi; after 3 weeks, a further month and yet a further month): 50-80%
- fungicidal activity in words (mould fungi; 0.06% of active ingredient on dry maize): particularly pronounced fungicidal activity
- root dry weight expressed as % of controls (cotton; 45 mg a.i./kg of seeds): 105 % of controls
- root length expressed as % controls (cotton; 45 mg a.i./kg of seeds): 122 % controls
- root dry weight expressed as % of controls (cotton; 150 mg a.i./kg of seeds): 97 % of controls
- root length expressed as % controls (cotton; 150 mg a.i./kg of seeds): 111 % controls
- root dry weight expressed as % of controls (cotton; 500 mg a.i./kg of seeds): 129 % of controls
- root length expressed as % controls (cotton; 500 mg a.i./kg of seeds): 122 % controls
- root growth stimulation effectiveness in words (cotton; [3]): every effective
- root growth stimulation effectiveness in words (wheat [2]): very effective
